Assay results reported in publication doi:10.1101/2020.07.28.224543v1, “Diminazene resistance in Trypanosoma congolense is linked to reduced mitochondrial membrane potential and not to reduced transport capacity” (biorxiv, 2020).

Experiments:
T. congolense IL3000 = tested on: T1, T. congolense IL3000; assay: microbe, parasite or virus in culture; design: Alamar blue (resazurin) viability assay of in vitro grown trypanosomes, fluorescence read-out; conditions: Trypanosoma congolense, parental strain IL3000
T1 construct: IL3000
Description: At the point of adaptation to 550 nM, the level of DA resistance and the extent of any cross-resistance with the diamidine drugs pentamidine and DB829, and with oxaboroles AN7973 and SCYX7158, was tested using an assay based on the viability dye Alamar blue (resazurin), in which live trypanosomes (but not dead ones) reduce blue and non-fluorescent resazurin to pink, fluorescent resorufin. This assay yields a fluorescent output that is proportional to the number of cells in the well [36]. […] Resistance to DA, as measured in this assay, was ~2.3-3-fold, and highly significant (Fig 1A for fold differences and P values, Table 1 for EC50 values). […] Importantly, there was no cross-resistance with isometamidium, nor with either of the oxaboroles tested, AN7973 and SCYX7158. To further investigate the limits of cross-resistance with other diamidines, a series of bis-benzofuran analogues were tested (Table 1). These analogues were chosen to explore the effect of variable linker length between the benzofuramidine end groups, varying inter-amidine distance as well as the flexibility of the molecule.

TbAT1 = biological target: T2, TbAT1 (Trypanosoma brucei, UniProt Q9Y0I0); assay: inhibition of [3H]-diminazene uptake in transfected bloodstream-form trypanosomes; type: cell-based; conditions: read-out: % inhibition at 1 mM
T2 construct: gene AT1; full-length transporter expressed in T. b. brucei bloodstream-form clone B48 (lacks native TbAT1/P2 and wild-type TbAQP2)
T2 sequence (Q9Y0I0 entry or part of it): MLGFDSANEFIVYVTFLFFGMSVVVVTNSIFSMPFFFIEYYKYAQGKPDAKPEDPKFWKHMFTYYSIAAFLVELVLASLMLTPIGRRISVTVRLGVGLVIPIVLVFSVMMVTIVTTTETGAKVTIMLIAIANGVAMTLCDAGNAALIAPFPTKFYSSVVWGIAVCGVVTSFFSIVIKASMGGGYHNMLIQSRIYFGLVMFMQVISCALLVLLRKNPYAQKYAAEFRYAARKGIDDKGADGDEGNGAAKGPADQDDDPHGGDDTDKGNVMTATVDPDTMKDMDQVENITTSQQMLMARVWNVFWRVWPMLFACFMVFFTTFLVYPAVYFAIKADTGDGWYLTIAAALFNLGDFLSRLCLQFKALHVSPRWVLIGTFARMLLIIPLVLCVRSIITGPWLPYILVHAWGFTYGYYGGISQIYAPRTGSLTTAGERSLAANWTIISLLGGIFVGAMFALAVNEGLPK

## CC1(C)OB(O)c2cc(NC(=O)c3ccc(-n4cccn4)cc3Cl)ccc21 [AN7973]
T. congolense IL3000; first series
  EC50: 120 nM

## Nc1ncnc2c1ncn2[C@@H]1O[C@H](CO)[C@@H](O)[C@H]1O [Ado, adenosine]
TbAT1
  inhibition at 1000 µM: 100%

## N=C(N)c1ccc(N=NNc2ccc(C(=N)N)cc2)cc1 [DA, diminazene aceturate]
T. congolense IL3000; first series
  EC50: 270 nM
T. congolense IL3000; second series
  EC50: 330 nM

## CC[n+]1c(-c2ccccc2)c2cc(N/N=N/c3cccc(C(=N)N)c3)ccc2c2ccc(N)cc21 [Isometamidium]
T. congolense IL3000; first series
  EC50: 9.8 nM

## N=C(N)c1ccc(OCCCCCOc2ccc(C(=N)N)cc2)cc1 [Pentamidine]
T. congolense IL3000; first series
  EC50: 1010 nM

## CC1(C)OB(O)c2cc(NC(=O)c3ccc(F)cc3C(F)(F)F)ccc21 [SCYX-7158]
T. congolense IL3000; first series
  EC50: 520 nM
